Results on 14 compounds are retold here after patent US20050282743A1, “Molecular interactions in cells” (Arbor Vita Corporation, priority 2001, published 2005).

Type in all cases: binding
For experiment [1], the target named is T1, KIAA0807(S) (PDZ Domain 1) (Homo sapiens, UniProt Q6P0Q8).
T1 construct: made in house; host or cells: E. coli (DH5alpha, BL21 or JM109)
T1 sequence (Q6P0Q8 with tags, fused parts or gaps): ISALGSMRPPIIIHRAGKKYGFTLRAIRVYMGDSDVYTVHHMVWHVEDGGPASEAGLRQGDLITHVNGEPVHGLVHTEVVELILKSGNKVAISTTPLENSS
The experiment is described as follows: G' assay and Kd titration, TABLE 12. Conditions: for Classification: A450 nm class of biotinylated PL peptide bound, 0 in conc columns = peptide 10 uM, protein 5 ug/ml. Here is the method: The third column labeled “Peptide Optimal Concentration” in the tables is a number reflective of the binding interaction between the PL protein and PDZ protein. […] The column labeled “Protein Optimal Concentration” refers to the protein concentration used to assay PL interaction (in ug/ml); a ‘0’ is indicative of 5 ug/ml protein concentration; any other value represents the concentration (in ug/ml) used to determine the dissociation constant for a given interaction.
Finally, the seventh column labeled “Classification” is another measure of the level of binding. In particular, it provides an absorbance value at 450 nm which indicates the amount of PL peptide bound to the PDZ protein. The following numerical values have the following meanings: ‘1’—A450 nm 0-1; ‘2’—A450 nm 1-2; ‘3’—A450 nm 2-3; ‘4’—A450 nm 3-4; ‘5’—A450 nm of 4 more than 2× repeated; ‘0’—A450 nm 0, i.e., not found to interact. Thus, higher numbers indicate stronger interactions.
For convenience, the assay conditions described in this section are referred to as the “G′ assay” and the “G″ assay,” with the specific conditions described in the preceding section on G assays being referred to as the “G^0 assay.” The “G′ assay” is identical to the “G^0 assay” except at step (2) the peptide concentration is 10 uM instead of 20 uM.

For experiment [2], the target named is T2, PDZ protein (GST-PDZ fusion) (Homo sapiens, UniProt O14908).
T2 construct: made in house; host or cells: E. coli (DH5alpha, BL21 or JM109)
T2 sequence (O14908 1-333): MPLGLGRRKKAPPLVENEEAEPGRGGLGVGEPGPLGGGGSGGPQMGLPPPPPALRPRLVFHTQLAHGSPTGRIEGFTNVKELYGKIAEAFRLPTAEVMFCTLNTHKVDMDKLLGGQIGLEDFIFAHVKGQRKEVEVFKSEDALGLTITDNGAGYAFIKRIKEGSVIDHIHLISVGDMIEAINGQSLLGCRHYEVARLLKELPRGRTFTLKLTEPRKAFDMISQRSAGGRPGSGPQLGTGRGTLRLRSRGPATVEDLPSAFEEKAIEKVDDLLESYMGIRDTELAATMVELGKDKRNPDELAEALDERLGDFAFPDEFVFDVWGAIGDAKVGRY
Put plainly: G' assay (10 uM PL peptide), results of TABLE 7 and TABLE 12. Conditions: PDZ TAX IP2, PDZ Domain 1. An outline of the steps:
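Biotinylated PL peptides at 10 uM (vs 20 uM in G^0 assay) bound to GST-PDZ fusions; PDZ protein at 5 ug/ml unless another concentration listed. Bound peptide read as A450 nm, classified 0–5 (0 = A450 0; 5 = A450 >4 repeated).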

For experiment [3], the target named is T3, PDZ-domain polypeptide (GST/PDZ fusion protein) (Homo sapiens, UniProt Q12923).
T3 construct: made in house; host or cells: E. coli (DH5alpha, BL21 or JM109)
The experiment is described as follows: Apparent affinity (Kd) by titration of PL peptide in the G assay. The note with it: PDZ PTPL-1, PDZ Domain 2. In a few lines: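 A fixed concentration of GST/PDZ fusion protein, 5 ug/ml by default, was mixed in solution with increasing labeled PL peptide (e.g. 0.1 uM-1 mM). Reaction times ranged from 10 minutes to 2 days at 4-37° C. Complexes were separated from free peptide and detected via the label as in the G assay, apparent affinity coming from the saturating concentration.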

Where two headings read alike, the source gives them in different places. Ends that are not written are not given here. Peptide text beside a SMILES is read from it. * marks the point of attachment. Biotin = O=C1N[C@H]2[C@H](CS[C@H]2CCCCC(=O)*)N1

T3 sequence (Q12923 whole entry, the tested form may be a part): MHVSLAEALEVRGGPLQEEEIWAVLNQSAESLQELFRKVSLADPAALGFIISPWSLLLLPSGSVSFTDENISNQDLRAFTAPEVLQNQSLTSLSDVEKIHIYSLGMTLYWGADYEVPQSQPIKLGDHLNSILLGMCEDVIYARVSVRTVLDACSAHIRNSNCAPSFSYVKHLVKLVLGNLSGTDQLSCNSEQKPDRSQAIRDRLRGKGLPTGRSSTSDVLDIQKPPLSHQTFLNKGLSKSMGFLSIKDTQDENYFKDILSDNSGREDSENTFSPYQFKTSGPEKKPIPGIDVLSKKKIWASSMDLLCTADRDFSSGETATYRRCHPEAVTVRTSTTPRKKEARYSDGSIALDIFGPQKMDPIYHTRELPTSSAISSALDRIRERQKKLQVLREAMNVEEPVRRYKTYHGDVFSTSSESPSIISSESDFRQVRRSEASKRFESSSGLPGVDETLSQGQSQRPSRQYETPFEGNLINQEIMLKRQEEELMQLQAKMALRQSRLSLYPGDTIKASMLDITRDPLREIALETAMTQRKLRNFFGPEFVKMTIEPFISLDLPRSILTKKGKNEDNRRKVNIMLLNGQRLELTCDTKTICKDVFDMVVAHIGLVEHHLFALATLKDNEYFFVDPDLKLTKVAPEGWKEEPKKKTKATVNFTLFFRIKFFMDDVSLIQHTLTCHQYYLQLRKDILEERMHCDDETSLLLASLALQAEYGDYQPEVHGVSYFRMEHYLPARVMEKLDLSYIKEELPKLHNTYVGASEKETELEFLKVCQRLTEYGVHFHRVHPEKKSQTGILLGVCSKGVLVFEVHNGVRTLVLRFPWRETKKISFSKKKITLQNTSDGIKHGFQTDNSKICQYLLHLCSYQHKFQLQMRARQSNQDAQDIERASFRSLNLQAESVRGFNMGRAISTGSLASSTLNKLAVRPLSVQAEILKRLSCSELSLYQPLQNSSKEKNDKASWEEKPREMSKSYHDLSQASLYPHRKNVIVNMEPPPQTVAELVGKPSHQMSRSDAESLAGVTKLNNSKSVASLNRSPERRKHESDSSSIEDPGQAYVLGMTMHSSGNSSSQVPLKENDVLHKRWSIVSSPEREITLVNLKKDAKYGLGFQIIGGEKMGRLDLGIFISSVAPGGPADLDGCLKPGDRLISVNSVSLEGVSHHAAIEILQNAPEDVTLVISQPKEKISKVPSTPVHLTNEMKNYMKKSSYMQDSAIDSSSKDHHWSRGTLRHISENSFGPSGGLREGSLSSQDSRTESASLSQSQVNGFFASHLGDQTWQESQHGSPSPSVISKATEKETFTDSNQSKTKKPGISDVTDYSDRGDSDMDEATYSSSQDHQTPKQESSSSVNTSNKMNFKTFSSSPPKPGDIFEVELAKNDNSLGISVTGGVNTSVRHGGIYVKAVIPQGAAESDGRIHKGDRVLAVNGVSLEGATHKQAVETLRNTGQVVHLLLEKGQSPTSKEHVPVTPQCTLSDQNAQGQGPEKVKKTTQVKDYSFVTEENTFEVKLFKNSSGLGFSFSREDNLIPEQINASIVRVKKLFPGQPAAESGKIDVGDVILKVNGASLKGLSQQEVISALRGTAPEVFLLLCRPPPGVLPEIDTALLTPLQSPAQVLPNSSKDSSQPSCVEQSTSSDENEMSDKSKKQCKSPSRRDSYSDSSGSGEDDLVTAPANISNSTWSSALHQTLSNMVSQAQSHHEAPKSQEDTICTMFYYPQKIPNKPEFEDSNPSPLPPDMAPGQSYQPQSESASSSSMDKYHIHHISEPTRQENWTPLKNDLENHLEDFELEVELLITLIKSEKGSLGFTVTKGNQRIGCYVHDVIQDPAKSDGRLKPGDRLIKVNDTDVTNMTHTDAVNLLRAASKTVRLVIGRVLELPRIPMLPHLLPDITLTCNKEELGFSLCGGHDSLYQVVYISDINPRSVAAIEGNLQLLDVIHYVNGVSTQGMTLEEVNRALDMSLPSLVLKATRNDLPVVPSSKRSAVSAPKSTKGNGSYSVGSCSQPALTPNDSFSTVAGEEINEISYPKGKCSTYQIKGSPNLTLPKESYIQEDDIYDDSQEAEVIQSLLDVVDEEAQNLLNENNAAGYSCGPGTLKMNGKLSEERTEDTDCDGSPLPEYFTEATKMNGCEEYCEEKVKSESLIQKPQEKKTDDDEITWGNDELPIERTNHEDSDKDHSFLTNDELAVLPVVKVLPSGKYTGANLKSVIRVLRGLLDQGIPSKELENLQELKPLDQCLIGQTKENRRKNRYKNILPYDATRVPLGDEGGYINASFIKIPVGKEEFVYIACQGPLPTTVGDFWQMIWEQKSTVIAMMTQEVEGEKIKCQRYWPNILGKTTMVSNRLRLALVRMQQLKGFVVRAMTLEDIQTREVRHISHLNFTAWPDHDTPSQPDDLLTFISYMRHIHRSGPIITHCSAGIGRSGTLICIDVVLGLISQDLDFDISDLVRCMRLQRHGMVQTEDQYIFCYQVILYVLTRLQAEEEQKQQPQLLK

As to “QATSRNGHSARQHVVADTEL (Biotin-QATSRNGHSARQHVVADTEL) [CD34]”, the Classification in experiment [1] is on record as 3 (A450 nm 2-3). Regarding `CC(C)C[C@H](NC(=O)[C@H](CC(=O)O)NC(=O)[C@H](CO)NC(=O)[C@H](CCC(=O)O)NC(=O)CNC(=O)[C@H](Cc1ccc(O)cc1)NC(=O)[C@H](CC(C)C)NC(=O)[C@H](C)NC(=O)[C@H](CO)NC(=O)[C@H](CO)NC(=O)[C@H](Cc1ccccc1)NC(=O)[C@H](C)NC(=O)[C@H](C)NC(=O)[C@H](Cc1ccc(O)cc1)NC(=O)[C@H](CC(=O)O)NC(=O)[C@H](CC(C)C)NC(=O)[C@H](C)NC(=O)CNC(=O)[C@@H]1CCCN1C(=O)[C@@H](NC(=O)CCCC[C@@H]1SC[C@@H]2NC(=O)N[C@@H]21)C(C)C)C(=O)O` [a-actinin 2] (Biotin-VPGALDYAAFSSALYGESDL-OH; C-terminus assumed), the Classification in experiment [2] is 5 (A450 nm of 4 more than 2× repeated). Regarding `CC[C@H](C)[C@H](NC(=O)[C@H](CCC(N)=O)NC(=O)[C@@H](NC(=O)[C@H](Cc1c[nH]cn1)NC(=O)[C@H](CCC(N)=O)NC(=O)[C@H](CC(=O)O)NC(=O)[C@H](CCC(=O)O)NC(=O)[C@H](CC(=O)O)NC(=O)[C@H](Cc1ccccc1)NC(=O)[C@@H]1CCCN1C(=O)[C@H](CCC(=O)O)NC(=O)[C@H](CC(N)=O)NC(=O)[C@H](CCC(=O)O)NC(=O)[C@@H]1CCCN1C(=O)[C@H](CC(=O)O)NC(=O)[C@H](CO)NC(=O)[C@H](CC(=O)O)NC(=O)CCCC[C@@H]1SC[C@@H]2NC(=O)N[C@@H]21)[C@@H](C)O)C(=O)N[C@H](C(=O)N[C@@H](CCCCN)C(=O)N[C@H](C(=O)O)C(C)C)[C@@H](C)O` [PTEN], the Kd in experiment [3] (read-out: Peptide Optimal Conc (Kd by titration of the PL peptide)) was 300 nM. Take `CSCC[C@H](NC(=O)[C@H](C)NC(=O)[C@H](CCCNC(=N)N)NC(=O)CNC(=O)[C@@H](NC(=O)[C@H](Cc1c[nH]c2ccccc12)NC(=O)[C@H](CCCNC(=N)N)NC(=O)CNC(=O)CCCC[C@@H]1SC[C@@H]2NC(=O)N[C@@H]21)[C@@H](C)O)C(=O)N[C@@H](CO)C(=O)N[C@@H](C)C(=O)N[C@@H](Cc1c[nH]c2ccccc12)C(=O)N[C@@H](CCCCN)C(=O)N1CCC[C@H]1C(=O)N[C@H](C(=O)N[C@@H](CCCNC(=N)N)C(=O)N[C@@H](CCCNC(=N)N)C(=O)N[C@@H](CCC(=O)O)C(=O)N[C@H](C(=O)N[C@@H](CCC(=O)O)C(=O)N[C@H](C(=O)O)C(C)C)[C@@H](C)O)[C@@H](C)O` [HPV E6 #35 (modified)] (Biotin-GRWTGRAMSAWKPTRRETEV-OH; C-terminus assumed): the Classification in experiment [2] was 4 (A450 nm 3-4).

Take “ARHRVTSYTSSSVNVSSNL (Biotin-ARHRVTSYTSSSVNVSSNL) [IL-8RB]”: the Classification in experiment [1] is recorded as 1 (A450 nm 0-1). Consider `CC[C@H](C)[C@H](NC(=O)[C@H](Cc1c[nH]cn1)NC(=O)[C@H](C)NC(=O)[C@H](C)NC(=O)[C@H](CO)NC(=O)[C@@H]1CCCN1C(=O)[C@H](CCCNC(=N)N)NC(=O)[C@H](CC(=O)O)NC(=O)[C@H](CCCCN)NC(=O)[C@@H]1CCCN1C(=O)[C@H](CC(=O)O)NC(=O)[C@H](CCC(=O)O)NC(=O)CCCC[C@@H]1SC[C@@H]2NC(=O)N[C@@H]21)C(=O)N[C@H](C(=O)N[C@@H](CCC(=O)O)C(=O)N[C@@H](C)C(=O)N[C@@H](CC(C)C)C(=O)N[C@@H](CCC(=O)O)C(=O)N[C@H](C(=O)N[C@@H](CC(=O)O)C(=O)N[C@H](C(=O)O)C(C)C)[C@@H](C)O)C(C)C` [PDZ-binding kinase (PBK)] (Biotin-EDPKDRPSAAHIVEALETDV-OH; C-terminus assumed), for which the Kd in experiment [3] (read-out: Peptide Optimal Conc (non-zero value: Kd by titration of the PL peptide)) is 6000 nM.

Turning to `CC(C)C[C@H](NC(=O)[C@H](C)NC(=O)[C@H](CO)NC(=O)CNC(=O)[C@@H](NC(=O)CCCC[C@@H]1SC[C@@H]2NC(=O)N[C@@H]21)[C@@H](C)O)C(=O)N[C@@H](CCC(N)=O)C(=O)N[C@@H](C)C(=O)N[C@@H](Cc1c[nH]c2ccccc12)C(=O)N[C@@H](CCCNC(=N)N)C(=O)N[C@@H](Cc1c[nH]cn1)C(=O)N[C@H](C(=O)N[C@@H](CO)C(=O)N[C@@H](CCCNC(=N)N)C(=O)N[C@@H](CCC(N)=O)C(=O)N[C@@H](C)C(=O)N[C@H](C(=O)N[C@@H](CCC(=O)O)C(=O)N[C@@H](CO)C(=O)N[C@H](C(=O)N[C@H](C(=O)O)C(C)C)[C@@H](C)O)[C@@H](C)O)[C@@H](C)O` [HPV E6 #66 (modified)] (Biotin-TGSALQAWRHTSRQATESTV-OH; C-terminus assumed), the Classification in experiment [2] is reported as 2 (A450 nm 1-2). For the compound `CC[C@H](C)[C@H](NC(=O)[C@H](CO)NC(=O)[C@H](CCC(=O)O)NC(=O)[C@H](Cc1ccc(O)cc1)NC(=O)[C@H](CC(=O)O)NC(=O)[C@H](CC(N)=O)NC(=O)[C@H](CCC(=O)O)NC(=O)[C@H](CCCCN)NC(=O)CCCC[C@@H]1SC[C@@H]2NC(=O)N[C@@H]21)C(=O)N[C@@H](CO)C(=O)N[C@@H](CC(=O)O)C(=O)N[C@@H](CC(C)C)C(=O)N[C@@H](CCC(N)=O)C(=O)N[C@@H](CCC(N)=O)C(=O)NCC(=O)N[C@@H](CCCNC(=N)N)C(=O)N[C@@H](CC(=O)O)C(=O)N[C@H](C(=O)N[C@H](C(=O)N[C@@H](CCCNC(=N)N)C(=O)N[C@@H](CC(C)C)C(=O)O)[C@@H](C)O)[C@@H](C)CC` [PAG] (Biotin-KENDYESISDLQQGRDITRL-OH; C-terminus assumed), the Classification in experiment [1] was 5 (A450 nm of 4 more than 2× repeated). For the same compound, the Kd in experiment [1] (titration of PL peptide, KIAA0807(S) protein 0.5 ug/ml, read-out: Peptide Optimal Conc (Kd)) worked out at 350 nM. As for `CC(C)C[C@H](NC(=O)[C@H](C)NC(=O)[C@@H](NC(=O)[C@@H](NC(=O)[C@H](Cc1c[nH]cn1)NC(=O)[C@H](CC(C)C)NC(=O)CNC(=O)[C@H](CCC(N)=O)NC(=O)CNC(=O)CNC(=O)[C@H](C)NC(=O)[C@H](C)NC(=O)[C@H](CCCNC(=N)N)NC(=O)[C@H](C)NC(=O)[C@H](CO)NC(=O)[C@H](CC(=O)O)NC(=O)[C@H](CC(=O)O)NC(=O)[C@H](Cc1c[nH]c2ccccc12)NC(=O)[C@H](C)NC(=O)CCCC[C@@H]1SC[C@@H]2NC(=O)N[C@@H]21)C(C)C)[C@@H](C)O)C(=O)O` [LPAP] (Biotin-AWDDSARAAGGQGLHVTAL-OH; C-terminus assumed), in experiment [1], the Classification is 5 (A450 nm of 4 more than 2× repeated). Same read-out and setting: next, “LASKSAEEGKQIPDSLSTDL (Biotin-LASKSAEEGKQIPDSLSTDL) [Dock2]”: 4 (A450 nm 3-4).

Take TQGFPGPATWRRISSLESEV: the Classification in experiment [2] is listed as 4 (A450 nm 3-4). For the compound `CC[C@H](C)[C@H](NC(=O)[C@H](CCC(N)=O)NC(=O)CCCC[C@@H]1SC[C@@H]2NC(=O)N[C@@H]21)C(=O)N[C@@H](CO)C(=O)N1CCC[C@H]1C(=O)NCC(=O)NCC(=O)N[C@@H](CC(C)C)C(=O)N[C@@H](CCC(=O)O)C(=O)N1CCC[C@H]1C(=O)N1CCC[C@H]1C(=O)N[C@@H](CO)C(=O)N[C@@H](CCC(=O)O)C(=O)N[C@@H](CCCCN)C(=O)N[C@@H](Cc1c[nH]cn1)C(=O)N[C@@H](Cc1ccccc1)C(=O)N[C@@H](CCCNC(=N)N)C(=O)N[C@@H](CCC(=O)O)C(=O)N[C@H](C(=O)N[C@@H](CCC(=O)O)C(=O)N[C@H](C(=O)O)C(C)C)[C@@H](C)O` [Tax], the Classification is recorded as 2 (A450 nm 1-2) in experiment [2] and 5 (A450 nm of 4 more than 2× repeated) in experiment [1]. For the compound CKR5_HUMAN (ERASSVYTRSTGEQEISVGL), the Classification in experiment [2] is listed as 1 (A450 nm 0-1). As to `CC(C)C[C@H](NC(=O)CNC(=O)[C@@H](NC(=O)[C@H](CO)NC(=O)[C@H](CC(N)=O)NC(=O)[C@H](Cc1ccccc1)NC(=O)CNC(=O)[C@H](C)NC(=O)[C@H](C)NC(=O)[C@H](Cc1ccccc1)NC(=O)[C@@H](NC(=O)CCCC[C@@H]1SC[C@@H]2NC(=O)N[C@@H]21)[C@@H](C)O)[C@@H](C)O)C(=O)N1CCC[C@H]1C(=O)N[C@@H](Cc1c[nH]cn1)C(=O)N[C@@H](CO)C(=O)N[C@H](C(=O)N[C@H](C(=O)N[C@@H](CCCNC(=N)N)C(=O)N[C@H](C(=O)O)C(C)C)[C@@H](C)O)[C@@H](C)O` [Neuroligin] (Biotin-TFAAGFNSTGLPHSTTRV-OH; C-terminus assumed), the Classification in experiment [1] is 3 (A450 nm 2-3).
